How the values were obtained:
WIL2-S target cells = assay: Antibody-dependent cellular phagocytosis (ADCP) with polarized macrophages; format: cell-based; settings: Homo sapiens, Macrophage, 256 nM
Protocol: Next, antibody-dependent cellular phagocytosis (ADCP) was characterized. The CD14^+ negatively selected monocytes (Astarte Biologics, Bothell, Wash.) were cultured in Gibco AIM V Medium CTS (Life Technologies, Grand Island, N.Y.) with macrophage colony-stimulating factor (PeproTech, Rocky Hill, N.J.) at 60 ng/mL. At Day 6 or 7, monocyte-derived macrophages were washed and plated with polarizing cytokines. For differentiation to M1 macrophages, cells were plated with interferon-γ 100 ng/mL (R&D Systems, Minneapolis, Minn.) and lipopolysaccharides from E. coli 055:B5 100 ng/mL (Sigma-Aldrich, St Louis, Mo.) for 24 hours. For differentiation to M2c macrophages, cells were plated in interleukin-10 10 ng/mL (R&D Systems) for 48 hours. Compound B titration was added to the plated macrophages and incubated at 37° C. for about 1 hour. […] Cells were then stained with pooled FITC anti-CD14 (Becton, Dickinson and Company, Franklin Lakes, N.J.) and FITC anti-CD11b (eBioscience, San Diego, Calif.), harvested from 96-well plates with Accutase (Merck Millipore, Darmstadt, Germany) and vigorous pipetting, and analyzed on an LSR II flow cytometer (Becton, Dickinson and Company). Double-positive cells (FITC+CellTracker Red) represented phagocytized target cells and the levels of phagocytosis were calculated as % double-positive cells/% double positive cells+% target cells alone×100. […]

[1] = Plasma concentration in patient at clinical dose; format: in vivo, human; settings: clinical dose 150 mg, twice a day
pS6 Ser235/236 [2] = assay: Western blot, TPO-activated S6 phosphorylation in UT-7/TPO cells; format: cell-based; settings: then TPO
Protocol: (§1) In addition, Compound B was examined for the effects on the PI3K signaling pathway by determining the levels of AKT and S6 phosphorylation with or without TPO activation. Two cell lines, BaF3/MPL and UT-7/TPO sensitive or responsive to TPO activation were used. The cells were starved (i.e. growing on medium having less FBS) in […] FBS/RPMI for two hours before treated with 0.1, 1.0, or 2.0 μM of Compound B or vehicle (0.1% DMSO in RPMI) for 2 hours at 37° C. To examine the TPO-activated phosphorylation, the cells were then treated or activated with 50 ng/mL of human recombinant TPO (Peprotech) for 10 minutes at 37° C. The TPO activation or treatment may reflect the conditions in diseased cells as the PI3K pathway is activated by TPO in myelofibrosis. After treating with compound and/or TPO, the cells were collected, lysed by lysis buffer (Cell Signaling), separated by SDS-PAGE, and analyzed by the Western blot using antibodies specific to p-AKT Ser473 or pS6 Ser235/236 (Cell Signaling). The phosphorylation levels in treated cells were calculated and compared to those of untreated cells (i.e. vehicle as negative control).

p-AKT Ser473 = assay: Western blot, TPO-activated AKT phosphorylation in BaF3/MPL cells; format: cell-based; settings: then TPO 50 ng/mL 10 min
Protocol: as §1

[3] = test system: NK-cell expression of CD107a and CD16; assay: Antibody potency and NK-cell expression of CD107a and CD16; format: cell-based; settings: data not shown
pS6 Ser235/236 [4] = assay: Western blot, TPO-activated S6 phosphorylation in BaF3/MPL cells; format: cell-based; settings: then TPO
Protocol: as §1

CC[C@H](Nc1ncnc2[nH]cnc12)c1nc2cccc(F)c2c(=O)n1-c1ccccc1 [Compound B, (S)-2-(1-((9H-purin-6-yl)amino)propyl)-5-fluoro-3-phenylquinazolin-4(3H)-one]
inhibition at 0.256 µM (WIL2-S target cells): < 30%
maximal average plasma concentration (Cmax), adjusted for protein binding [1]: 256 nM
reduced p-S6 levels vs vehicle (pS6 Ser235/236 [2]; 0.1 μM 2 h): 13%
reduced p-S6 levels vs vehicle (pS6 Ser235/236 [2]; 1.0 μM 2 h): 28%
reduced p-S6 levels vs vehicle (pS6 Ser235/236 [2]; 2.0 μM 2 h): 48%
reduced p-AKT levels vs vehicle (p-AKT Ser473; 0.1 μM 2 h): 51%
reduced p-AKT levels vs vehicle (p-AKT Ser473; 1.0 μM 2 h): 64%
reduced p-AKT levels vs vehicle (p-AKT Ser473; 2.0 μM 2 h): 67%
reduction of the potency of both anti-CD20 antibodies ([3]; Compound B 256 nM with obinutuzumab or rituximab 0.01-1000 ng/mL): 0 to 15%
NK-cell degranulation, surface expression of CD107a ([3]; in 2 of 3 samples): inhibited NK-cell degranulation
reduced p-S6 levels vs vehicle (pS6 Ser235/236 [4]; 0.1 μM 2 h): 24%
reduced p-S6 levels vs vehicle (pS6 Ser235/236 [4]; 1.0 μM 2 h): 27%
reduced p-S6 levels vs vehicle (pS6 Ser235/236 [4]; 2.0 μM 2 h): 41%
